Data on 18 compounds can be found in PubChem BioAssay AID330 (DTP/NCI, 2004).

Molecules are shown by their SMILES. “And” between values parts separate entries of the source, which are not always exact repeats. Identical values can stand only once. Toxic doses and inconclusive results are not listed.

This assay has as its system P388 leukemia ip, CD2F1 mice, survival T/C. Put plainly: NCI In Vivo Anticancer Drug Screen. Data for tumor model P388 Leukemia (intraperitoneal) in CD2F1 (CDF1) mice. The settings on record: endpoint: median survival time, higher = longer survival. Put shortly: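 Mice carrying the transplanted tumor received test compound or vehicle. Survival was recorded in each group, and the value is the treated-group measurement divided by that of the vehicle-treated control group.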

[1] abbreviates: dose: 25.0 mg/kg/injection, schedule: Q01DX005 (ip), vehicle: Klucel (hydroxypropylcellulose) (HPC).
The mark [2] stands for this setting: dose: 50.0 mg/kg/injection, schedule: Q01DX005 (ip), vehicle: Klucel (hydroxypropylcellulose) (HPC).
The mark [3] stands for this setting: dose: 100.0 mg/kg/injection, schedule: Q01DX005 (ip), vehicle: Klucel (hydroxypropylcellulose) (HPC).
Where [4] appears, read: dose: 200.0 mg/kg/injection, schedule: Q01DX005 (ip), vehicle: Klucel (hydroxypropylcellulose) (HPC).
[5] abbreviates: dose: 50.0 mg/kg/injection, schedule: Q01DX009 (ip), vehicle: saline with Tween-80.
Where [6] appears, read: dose: 100.0 mg/kg/injection, schedule: Q01DX009 (ip), vehicle: saline with Tween-80.
[7] abbreviates: dose: 200.0 mg/kg/injection, schedule: Q01DX009 (ip), vehicle: saline with Tween-80.

For the compound `CC(O)C(=O)NCO` (stereo not given), the T/C is 104 % of control (dose: 50.0 mg/kg/injection, schedule: Q01DX005 (ip), vehicle: saline); 100 % of control (dose: 100.0 mg/kg/injection, schedule: Q01DX005 (ip), vehicle: saline); 100 % of control (dose: 200.0 mg/kg/injection, schedule: Q01DX005 (ip), vehicle: saline).

In the case of `O=C(O)C1Cc2c([nH]c3ccccc23)C2CCC(=O)N12` (stereo not given), the T/C is 106 % of control (dose: 25.0 mg/kg/injection, schedule: Q04DX003 (ip), vehicle: suspension in saline); 96 % of control (dose: 50.0 mg/kg/injection, schedule: Q04DX003 (ip), vehicle: suspension in saline); 98 % of control (dose: 100.0 mg/kg/injection, schedule: Q04DX003 (ip), vehicle: suspension in saline); 98 % of control (dose: 200.0 mg/kg/injection, schedule: Q04DX003 (ip), vehicle: suspension in saline).

`O=C1C=C(NCC2CCCN3CCCCC23)C(=O)c2ccccc21` (stereo not given): the T/C runs as follows: (dose: 94.62 mg/kg/injection, schedule: Q04DX002 (ip), vehicle: Klucel (hydroxypropylcellulose) (HPC)) 112 % of control; (dose: 189.25 mg/kg/injection, schedule: Q04DX002 (ip), vehicle: Klucel (hydroxypropylcellulose) (HPC)) 111 % of control.

Take `O=c1c(N(CCO)CCO)cn(Cc2ccccc2)c(=O)n1Cc1ccccc1`: the T/C runs as follows: under setting [1], 100 % of control; under setting [2], 102 % of control; under setting [3], 103 % of control; under setting [4], 97 % of control.

Regarding `CC(=O)Oc1ccc2[nH]c(C)cc2c1`, the T/C runs as follows: (dose: 100.0 mg/kg/injection, schedule: Q01DX001 (ip), vehicle: saline with Tween-80) 100 % of control; (dose: 200.0 mg/kg/injection, schedule: Q01DX001 (ip), vehicle: saline with Tween-80) 98 % of control; (dose: 400.0 mg/kg/injection, schedule: Q01DX001 (ip), vehicle: saline with Tween-80) 93 % of control; (dose: 800.0 mg/kg/injection, schedule: Q01DX001 (ip), vehicle: saline with Tween-80) 103 % of control.

`C#CCOc1c(Cl)cc(Cl)c2ccccc12`: the T/C is, setting by setting: (dose: 100.0 mg/kg/injection, schedule: Q04DX003 (ip), vehicle: Klucel (hydroxypropylcellulose) (HPC)) 100 % of control; (dose: 200.0 mg/kg/injection, schedule: Q04DX003 (ip), vehicle: Klucel (hydroxypropylcellulose) (HPC)) 93 % of control; (dose: 400.0 mg/kg/injection, schedule: Q04DX003 (ip), vehicle: Klucel (hydroxypropylcellulose) (HPC)) 93 % of control.

Consider `CSc1nc(C#N)c(/N=C\N(C)C)s1`, for which the T/C is 100 % of control under setting [2], 99 % of control under setting [3] and 100 % of control under setting [4].

Consider `COc1ccc2c3c([nH]c2c1N)C(C)NCC3` (stereo not given), for which the T/C (dose: 12.5 mg/kg/injection, schedule: Q01DX005 (ip), vehicle: Klucel (hydroxypropylcellulose) (HPC)) is 102 % of control; the T/C under setting [1] was 96 % of control; the T/C under setting [2] was 104 % of control; the T/C under setting [3] is 104 % of control.

Take `C[Si](C)(C)CC[Si]12OCCN(CCO1)CCO2`: the T/C is 106 % of control under setting [2], 104 % of control under setting [3] and 92 % of control under setting [4].

In the case of `CCCC(=O)c1ccc(C)cc1`, the T/C is 104 % of control (dose: 100.0 mg/kg/injection, schedule: Q04DX003 (ip), vehicle: saline with Tween-80); 104 % of control (dose: 200.0 mg/kg/injection, schedule: Q04DX003 (ip), vehicle: saline with Tween-80); 86 % of control (dose: 400.0 mg/kg/injection, schedule: Q04DX003 (ip), vehicle: saline with Tween-80).

As for `C=C(C)C(=NC(C)(C)C)Nc1ccccc1Cl`, the T/C by setting is: (dose: 25.0 mg/kg/injection, schedule: Q01DX009 (ip), vehicle: saline with Tween-80) 101 % of control and 90 % of control; under setting [5], 100 % of control and 119 % of control and 93 % of control; under setting [6], 111 % of control and 115 % of control and 90 % of control; under setting [7], 115 % of control and 98 % of control.

On to `Cn1cnc([N+](=O)[O-])c1Sc1ccncn1`, for which the T/C (dose: 25.0 mg/kg/injection, schedule: Q01DX009 (ip), vehicle: saline) is 101 % of control and 105 % of control; the T/C (dose: 50.0 mg/kg/injection, schedule: Q01DX009 (ip), vehicle: saline) is 99 % of control and 103 % of control and 114 % of control; the T/C (dose: 100.0 mg/kg/injection, schedule: Q01DX009 (ip), vehicle: saline) is 103 % of control and 118 % of control; the T/C (dose: 200.0 mg/kg/injection, schedule: Q01DX009 (ip), vehicle: saline) is 112 % of control and 116 % of control.

`COC(=O)c1c(C(=O)c2ccccc2)nnn1-c1cccc(C(F)(F)F)c1`: the T/C (dose: 60.0 mg/kg/injection, schedule: Q01DX005 (ip), vehicle: Klucel + Tween-80) was 102 % of control; the T/C (dose: 120.0 mg/kg/injection, schedule: Q01DX005 (ip), vehicle: Klucel + Tween-80) is 103 % of control; the T/C (dose: 240.0 mg/kg/injection, schedule: Q01DX005 (ip), vehicle: Klucel + Tween-80) was 107 % of control.

As for `O=C1NC(=O)C(C(=O)Nc2ccc(Cl)cc2)c2ccccc21` (stereo not given), the T/C is 101 % of control under setting [2], 95 % of control under setting [3] and 99 % of control under setting [4].

In the case of `COc1ccc2c(C)cc(N/N=C(\c3ccccc3)c3ccccn3)nc2c1`, the T/C (dose: 1.56 mg/kg/injection, schedule: Q01DX005 (ip), vehicle: saline with Tween-80) is 107 % of control; the T/C (dose: 3.12 mg/kg/injection, schedule: Q01DX005 (ip), vehicle: saline with Tween-80) is 102 % of control; the T/C (dose: 6.25 mg/kg/injection, schedule: Q01DX005 (ip), vehicle: saline with Tween-80) is 98 % of control and 94 % of control; the T/C (dose: 100.0 mg/kg/injection, schedule: Q01DX005 (ip), vehicle: saline with Tween-80) is 89 % of control; the T/C (dose: 200.0 mg/kg/injection, schedule: Q01DX005 (ip), vehicle: saline with Tween-80) is 94 % of control.

On to `Nc1nc(SCC(=O)O)[nH]c(=O)c1NS(=O)(=O)c1ccccc1[N+](=O)[O-]`, for which the T/C is 90 % of control (dose: 60.0 mg/kg/injection, schedule: Q01DX005 (ip), vehicle: Klucel (hydroxypropylcellulose) (HPC)); 91 % of control (dose: 120.0 mg/kg/injection, schedule: Q01DX005 (ip), vehicle: Klucel (hydroxypropylcellulose) (HPC)); 96 % of control (dose: 240.0 mg/kg/injection, schedule: Q01DX005 (ip), vehicle: Klucel (hydroxypropylcellulose) (HPC)).

For `Cc1cc2c(c3oc(C4(C)OC4C4OC4C)cc(=O)c13)C(=O)c1c(O)c(C3CC(C)(N(C)C)C(O)C(C)O3)cc(C3CC(N(C)C)C(O)C(C)O3)c1C2=O` (stereo not given), the T/C was 150 % of control (dose: 0.02 mg/kg/injection, schedule: Q01DX005 (ip), vehicle: saline); 122 % of control (dose: 0.02 mg/kg/injection, schedule: Q03HX008 (ip), vehicle: saline); 113 % of control (dose: 0.02 mg/kg/injection, schedule: Q03HX016 (ip), vehicle: saline); 95 % of control (dose: 0.03 mg/kg/injection, schedule: Q01DX009 (ip), vehicle: saline); 118 % of control (dose: 0.03 mg/kg/injection, schedule: Q03HX008 (ip), vehicle: saline); 109 % of control (dose: 0.03 mg/kg/injection, schedule: Q03HX016 (ip), vehicle: saline). The T/C reads like this: (dose: 0.03 mg/kg/injection, schedule: Q04DX003 (ip), vehicle: saline) 150 % of control; (dose: 0.06 mg/kg/injection, schedule: Q01DX005 (ip), vehicle: saline) 100 % of control; (dose: 0.06 mg/kg/injection, schedule: Q01DX009 (ip), vehicle: saline) 104 % of control; (dose: 0.06 mg/kg/injection, schedule: Q03HX008 (ip), vehicle: saline) 122 % of control; (dose: 0.06 mg/kg/injection, schedule: Q04DX003 (ip), vehicle: saline) 150 % of control; (dose: 0.06 mg/kg/injection, schedule: Q08DX002 (ip), vehicle: saline) 150 % of control. Also, the T/C is 150 % of control (dose: 0.12 mg/kg/injection, schedule: Q01DX001 (ip), vehicle: saline); 113 % of control (dose: 0.12 mg/kg/injection, schedule: Q03HX016 (ip), vehicle: saline); 123 % of control (dose: 6.25 micrograms/kg/injection, schedule: Q01DX009 (ip), vehicle: saline); 99 % of control (dose: 10.0 micrograms/kg/injection, schedule: Q01DX009 (ip), vehicle: water); 101 % of control (dose: 12.5 micrograms/kg/injection, schedule: Q01DX009 (ip), vehicle: saline).

Take `O=C(NN(c1ccccc1)c1ccccc1)c1ccccc1[N+](=O)[O-]`: the T/C was 93 % of control under setting [5], 104 % of control under setting [6] and 93 % of control under setting [7].
